Like-named read-outs stand apart in the source and are kept apart here. One block for each compound: values may come before it.
Tests used:
P. aeruginosa 114228 = experiment: microbe, parasite or virus in culture; format: cell-based, Pseudomonas aeruginosa; conditions: Pseudomonas aeruginosa, 114228, agent alone, one value per checkerboard plate
Protocol: (§1) The adjuvant properties of the guanidinylated polymyxins were evaluated using the checkerboard assay as previously described. The bacterial solution was prepared as described in the antimicrobial susceptibility assay. The antibiotic of interest and the adjuvant were serially diluted two-fold along the x- and y-axis on a 96-well plate, respectively, resulting in varying concentrations of both agents in each well. Equal volumes of bacterial solution were added to the designated wells. The well consisting of bacterial solution served as the positive control, while the wells containing only media served as the negative control. The plate was then incubated at 37 °C for 18 h. After incubation, an Emax Plus microplate reader (Molecular Devices, Union City, CA, USA) was used to measure the OD at a wavelength of 590 nm to confirm the turbidity. The fractional inhibitory concentration (FIC) index was then determined to establish the relationship between the antibiotic and adjuvant. The FIC index corresponds to the sum of the FICs of the antibiotic and adjuvant. The FIC of each agent is calculated by dividing its MIC when it is used in combination by its MIC when used alone. FIC indices ≤0.5, 0.5 < x ≤ 4 and >4 indicate synergy, additivity and antagonism, respectively.

P. aeruginosa PAO1 = experiment: microbe, parasite or virus in culture; format: cell-based, Pseudomonas aeruginosa; conditions: for MIC: Pseudomonas aeruginosa, PAO1, 18 h, read-out: MIC alone
Protocol: as §1

A. baumannii 110193 = experiment: microbe, parasite or virus in culture; format: cell-based, Acinetobacter baumannii; conditions: one value per checkerboard plate
Protocol: as §1

A. baumannii 92247 = experiment: microbe, parasite or virus in culture; format: cell-based, Acinetobacter baumannii; conditions: one value per checkerboard plate
Protocol: as §1

A. baumannii AB027 = experiment: microbe, parasite or virus in culture; format: cell-based, Acinetobacter baumannii; conditions: one value per checkerboard plate
Protocol: as §1

A. baumannii ATCC 17978 = experiment: microbe, parasite or virus in culture; format: cell-based, Acinetobacter baumannii; conditions: for MIC: Acinetobacter baumannii, ATCC17978, 18 h, read-out: MIC alone
Protocol: as §1

E. coli ATCC 25922 = experiment: microbe, parasite or virus in culture; format: cell-based, Escherichia coli; set-up: key to FIC index antibiotic + GCol / FIC index antibiotic + GPMB: sum of FICs; ≤0.5 synergy, 0.5–4 additivity, >4 antagonism; conditions: for MIC: Escherichia coli, ATCC25922, 18 h, read-out: MIC alone
Protocol: as §1

P. aeruginosa 101243 = experiment: Checkerboard assay; format: cell-based, Pseudomonas aeruginosa; conditions: one value per checkerboard plate
Protocol: as §1

P. aeruginosa P259-96918 = experiment: Checkerboard assay; format: cell-based, Pseudomonas aeruginosa; conditions: Pseudomonas aeruginosa, P25996918; agent alone, one value per checkerboard plate
Protocol: as §1

[1] = test system: P. aeruginosa P262-101856; experiment: Checkerboard assay; format: cell-based, Pseudomonas aeruginosa; conditions: Pseudomonas aeruginosa, P262101856, agent alone, one value per checkerboard plate
Protocol: as §1

[2] = test system: P. aeruginosa P264-104354; experiment: Checkerboard assay; format: cell-based, Pseudomonas aeruginosa; conditions: Pseudomonas aeruginosa, P264104354, agent alone, one value per checkerboard plate
Protocol: as §1

A. baumannii AB031 = experiment: Checkerboard assay; format: cell-based, Acinetobacter baumannii; conditions: one value per checkerboard plate
Protocol: as §1

E. coli 107115 = experiment: microbe, parasite or virus in culture; format: cell-based, Escherichia coli; conditions: one value per checkerboard plate
Protocol: as §1

E. coli 94393 = experiment: Checkerboard assay; format: cell-based, Escherichia coli; conditions: one value per checkerboard plate
Protocol: as §1

E. coli 94474 = experiment: Checkerboard assay; format: cell-based, Escherichia coli; conditions: one value per checkerboard plate
Protocol: as §1

E. cloacae 121187 = experiment: microbe, parasite or virus in culture; format: cell-based, Enterobacter cloacae; conditions: one value per checkerboard plate
Protocol: as §1

E. cloacae 118564 = experiment: Checkerboard assay; format: cell-based, Enterobacter cloacae; conditions: Enterobacter cloacae, 118564; agent alone, one value per checkerboard plate
Protocol: as §1

K. pneumoniae 113250 = experiment: Checkerboard assay; format: cell-based, Klebsiella pneumoniae; conditions: one value per checkerboard plate
Protocol: as §1

K. pneumoniae 113254 = experiment: Checkerboard assay; format: cell-based, Klebsiella pneumoniae; conditions: one value per checkerboard plate
Protocol: as §1

P. aeruginosa PA 107092 = experiment: Time-kill assay; format: cell-based, Pseudomonas aeruginosa; conditions: ceftazidime 8 μg/mL + GCol 2 μM or avibactam 8 μM
Protocol: To study the time-dependent killing effects of the drug combinations, the time-kill kinetics were assessed. The time-kill assay was performed following the 8 μM (2 μg/mL) concentration of avibactam used in the checkerboard assay. […] This concentration also corresponds to the susceptibility breakpoint of both β-lactams.
For the preparation of the bacterial solution, an overnight grown culture was diluted in 0.85% saline solution and adjusted to 0.5 McFarland turbidity. […] The culture tubes were incubated at 37 °C, shaking at 250 rpm. At the appointed time intervals, a 100-μL aliquot was taken from each tube, serially diluted in phosphate-buffered saline (PBS) and plated on LB agar plates. The plates were incubated at 37 °C, and bacterial colonies were counted after 18 h. The bactericidal or bacteriostatic activity is determined based on the decrease in CFU over the time period. Bactericidal activity corresponds to ≥3 log10 reduction in CFU/mL, while bacteriostatic activity corresponds to <3 log10 reduction in CFU/mL.

[3] = agent alone, one value per checkerboard plate

MIC (P. aeruginosa 114228): 16 µg/mL | Absolute MIC of antibiotic at 4 μg/mL GCol (P. aeruginosa PAO1): 0.0625 µg/mL | Absolute MIC of antibiotic at 4 μg/mL GPMB (P. aeruginosa PAO1): 0.03125 µg/mL | MIC (P. aeruginosa PAO1; [3]): 16 µg/mL | MIC (A. baumannii 110193; Acinetobacter baumannii, 110193, agent alone): 2 µg/mL | MIC alone (A. baumannii 110193; agent alone): 1 µg/mL | MIC (A. baumannii 92247; Acinetobacter baumannii, 92247, agent alone): 1 µg/mL | MIC alone (A. baumannii 92247; agent alone): 0.5 µg/mL | MIC (A. baumannii AB027; Acinetobacter baumannii, AB027, agent alone): 2 µg/mL | MIC alone (A. baumannii AB027; agent alone): 1 µg/mL | Absolute MIC of antibiotic at 2 μg/mL GCol (A. baumannii ATCC 17978): 0.0625 µg/mL | Absolute MIC of antibiotic at 2 μg/mL GPMB (A. baumannii ATCC 17978): 0.004 µg/mL | MIC (A. baumannii ATCC 17978; [3]): 2 µg/mL | Absolute MIC of antibiotic at 2 μg/mL GCol (E. coli ATCC 25922): 0.008 µg/mL | Absolute MIC of antibiotic at 2 μg/mL GPMB (E. coli ATCC 25922): 0.008 µg/mL | MIC (E. coli ATCC 25922; [3]): 2 µg/mL | MIC (P. aeruginosa 101243; Pseudomonas aeruginosa, 101243, agent alone): 2 µg/mL | MIC alone (P. aeruginosa 101243; agent alone): 4 µg/mL | MIC (P. aeruginosa P259-96918): 16 µg/mL | MIC [1]: 512 µg/mL | MIC [2]: 16 µg/mL | MIC (A. baumannii AB031; Acinetobacter baumannii, AB031, agent alone): 2 µg/mL | MIC alone (A. baumannii AB031; agent alone): 1 µg/mL | MIC (E. coli 107115; Escherichia coli, 107115, agent alone): 32 µg/mL | MIC alone (E. coli 107115; agent alone): 16 µg/mL | MIC (E. coli 94393; Escherichia coli, 94393, agent alone): 8 µg/mL | MIC alone (E. coli 94393; agent alone): 4 µg/mL | MIC (E. coli 94474; Escherichia coli, 94474, agent alone): 8 µg/mL | MIC alone (E. coli 94474; agent alone): 4 µg/mL | MIC (E. cloacae 121187; Enterobacter cloacae, 121187, agent alone): 1 µg/mL | MIC alone (E. cloacae 121187; agent alone): 2 µg/mL | MIC (E. cloacae 118564): 8 µg/mL | MIC (K. pneumoniae 113250; Klebsiella pneumoniae, 113250, agent alone): 16 µg/mL | MIC alone (K. pneumoniae 113250; agent alone): 32 µg/mL | MIC (K. pneumoniae 113254; Klebsiella pneumoniae, 113254, agent alone): 8 µg/mL | MIC alone (K. pneumoniae 113254; agent alone): 16 µg/mL
Structure (SMILES): CO[C@H]1/C=C/O[C@@]2(C)Oc3c(C)c(O)c4c(O)c(c(/C=N/N5CCN(C)CC5)c(O)c4c3C2=O)NC(=O)/C(C)=C\C=C\[C@H](C)[C@H](O)[C@@H](C)[C@@H](O)[C@@H](C)[C@H](OC(C)=O)[C@@H]1C [Rifampicin]
Fold-potentiation of antibiotic (P. aeruginosa PAO1; at 4 μg/mL GCol): 256 | Fold-potentiation of antibiotic (P. aeruginosa PAO1; at 4 μg/mL GPMB): 512 | FIC index antibiotic + GPMB (A. baumannii ATCC 17978): 0.066 | Fold-potentiation of antibiotic (A. baumannii ATCC 17978; at 2 μg/mL GCol): 32 | Fold-potentiation of antibiotic (A. baumannii ATCC 17978; at 2 μg/mL GPMB): 512 | FIC index antibiotic + GCol (E. coli ATCC 25922): 0.023 | FIC index antibiotic + GPMB (E. coli ATCC 25922): 0.07 | Fold-potentiation of antibiotic (E. coli ATCC 25922; at 2 μg/mL GCol): 256 | Fold-potentiation of antibiotic (E. coli ATCC 25922; at 2 μg/mL GPMB): 256

Structure (SMILES): CN[C@H](CC(C)C)C(=O)N[C@H]1C(=O)N[C@@H](CC(N)=O)C(=O)N[C@H]2C(=O)N[C@H]3C(=O)N[C@H](C(=O)N[C@H](C(=O)O)c4cc(O)cc(O)c4-c4cc3ccc4O)[C@H](O)c3ccc(c(Cl)c3)Oc3cc2cc(c3O[C@@H]2O[C@H](CO)[C@@H](O)[C@H](O)[C@H]2O[C@H]2C[C@](C)(N)[C@H](O)[C@H](C)O2)Oc2ccc(cc2Cl)[C@H]1O [Vancomycin]
Absolute MIC of antibiotic at 4 μg/mL GCol (P. aeruginosa PAO1): 8 µg/mL | Absolute MIC of antibiotic at 4 μg/mL GPMB (P. aeruginosa PAO1): 2 µg/mL | MIC (P. aeruginosa PAO1): 256 µg/mL | Fold-potentiation of antibiotic (P. aeruginosa PAO1; at 4 μg/mL GCol): 32 | Fold-potentiation of antibiotic (P. aeruginosa PAO1; at 4 μg/mL GPMB): 128 | Absolute MIC of antibiotic at 2 μg/mL GCol (A. baumannii ATCC 17978): 64 µg/mL | Absolute MIC of antibiotic at 2 μg/mL GPMB (A. baumannii ATCC 17978): 16 µg/mL | FIC index antibiotic + GPMB (A. baumannii ATCC 17978): 0.188 | MIC (A. baumannii ATCC 17978): 128 µg/mL | Fold-potentiation of antibiotic (A. baumannii ATCC 17978; at 2 μg/mL GCol): 2 | Fold-potentiation of antibiotic (A. baumannii ATCC 17978; at 2 μg/mL GPMB): 8 | Absolute MIC of antibiotic at 2 μg/mL GCol (E. coli ATCC 25922): 16 µg/mL | Absolute MIC of antibiotic at 2 μg/mL GPMB (E. coli ATCC 25922): 8 µg/mL | FIC index antibiotic + GCol (E. coli ATCC 25922): 0.25 | FIC index antibiotic + GPMB (E. coli ATCC 25922): 0.313 | MIC (E. coli ATCC 25922): 128 µg/mL | Fold-potentiation of antibiotic (E. coli ATCC 25922; at 2 μg/mL GCol): 8 | Fold-potentiation of antibiotic (E. coli ATCC 25922; at 2 μg/mL GPMB): 16

Structure (SMILES): NC(=O)[C@@H]1CC[C@@H]2CN1C(=O)N2OS(=O)(=O)O [avibactam]
time-kill effect of dual therapy with ceftazidime (P. aeruginosa PA 107092): bacteriostatic effect

From paper PMC9598282 (Antibiotics, 2022)
